pIC50: −log10 of the molar value. “And” between values parts separate entries of the source, which are not always exact repeats. Identical values can stand only once. Like-named read-outs stand apart in the source and are kept apart here.
How the values were obtained:
[1] = target: T1, human factor XIa (Homo sapiens, UniProt P03951); assay: Direct inhibition of factor XIa, chromogenic substrate S-2366 hydrolysis assay; type: biochemical; settings: for IC50: read-out: IC50 (converted)
T1 construct: purchased Haematologic Technologies (Essex Junction, Vt.); host or cells: human plasma
T1 sequence (P03951 19-387 limits assumed): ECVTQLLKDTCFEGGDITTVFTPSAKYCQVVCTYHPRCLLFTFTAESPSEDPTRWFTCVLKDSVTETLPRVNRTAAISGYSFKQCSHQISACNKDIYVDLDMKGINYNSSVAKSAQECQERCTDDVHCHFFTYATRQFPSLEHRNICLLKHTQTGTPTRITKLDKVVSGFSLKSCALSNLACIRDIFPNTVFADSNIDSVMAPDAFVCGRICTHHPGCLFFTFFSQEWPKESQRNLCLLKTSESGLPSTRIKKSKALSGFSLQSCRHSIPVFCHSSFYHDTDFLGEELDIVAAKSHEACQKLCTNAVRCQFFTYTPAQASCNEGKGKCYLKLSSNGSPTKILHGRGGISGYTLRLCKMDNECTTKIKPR
T1 sequence (P03951 388-625 limits assumed): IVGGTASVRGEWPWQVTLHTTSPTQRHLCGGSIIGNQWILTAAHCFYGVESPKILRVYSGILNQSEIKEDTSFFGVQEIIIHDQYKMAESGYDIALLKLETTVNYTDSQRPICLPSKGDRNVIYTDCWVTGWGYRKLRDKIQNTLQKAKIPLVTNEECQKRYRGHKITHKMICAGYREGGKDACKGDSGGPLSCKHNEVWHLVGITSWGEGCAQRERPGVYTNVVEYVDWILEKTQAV
Experimental: Solvent A consisted of 25 mM n-hexylamine in water containing 0.1% (v/v) formic acid, while solvent B consisted of 25 mM n-hexylamine in acetonitrile-water mixture (3:1 v/v) containing 0.1% (v/v) formic acid. […] The sample was first monitored for absorbance in the range of 190-400 nm and then directly introduced into the mass spectrometer. ESI-MS detection was performed in positive ion mode for which the capillary voltage was 4 kV, cone voltage was 20 V, desolvation temperature was 350° C. and nitrogen gas flow was maintained at 650 L/hr. Mass scans were collected in the range of 1000-2048 amu within 0.25 s and several of these added to enhanced signal-to-noise ratio. Direct Inhibition of Factor XIa. […] After 10 min incubation, 5 μL factor XIa substrate (345 μM) was rapidly added and the residual FXIa activity was measured from the initial rate of increase in absorbance at 405 nm. […] Relative residual FXIa activity at each concentration of the inhibitor was calculated from the ratio of FXIa activity in the presence and absence of the inhibitor. Logistic equation 1 was used to fit the dose-dependence of residual protease activity to obtain the potency (IC50) and efficacy (ΔY) of inhibition.
Direct Inhibition of Factor XIa by Sulfated QAOs was performed as described in Example 1.
The ability of the sulfated inositol analogs to inhibit factor XIa was studied using the in vitro assay described in Example 1. In this assay, the factor XIa enzyme is anticipated to hydrolyze a particular peptide linkage in the corresponding peptide substrate releasing p-nitroaniline which absorbs at wavelength of 405 nm giving a line slope corresponds to the enzyme activity. The line slope of no inhibitor status is considered as a reference slope and it depends on the relative concentrations of factor XIa enzyme and its substrate. Factor XIa enzyme concentration was decided to get appropriate reference slope of approximately 25-35, whereas the substrate concentration was set to be larger than its affinity to factor XIa enzyme under equilibrium condition, Km. In presence of potential factor XIa inhibitor, the enzyme capacity to hydrolyze the designated peptide linkage in the substrate gets diminished or completely abolished depending on the inhibitor concentration and efficacy. […] Such decreased slope reflects a drop in the catalytic enzyme activity of factor XIa.

[2] = target: T2, factor Xa (Homo sapiens, UniProt P00742); assay: Factor Xa chromogenic substrate hydrolysis assay; type: biochemical
T2 construct: purchased Haematologic Technologies (Essex Junction, Vt.); host or cells: human plasma
T2 sequence (P00742 235-488 limits assumed): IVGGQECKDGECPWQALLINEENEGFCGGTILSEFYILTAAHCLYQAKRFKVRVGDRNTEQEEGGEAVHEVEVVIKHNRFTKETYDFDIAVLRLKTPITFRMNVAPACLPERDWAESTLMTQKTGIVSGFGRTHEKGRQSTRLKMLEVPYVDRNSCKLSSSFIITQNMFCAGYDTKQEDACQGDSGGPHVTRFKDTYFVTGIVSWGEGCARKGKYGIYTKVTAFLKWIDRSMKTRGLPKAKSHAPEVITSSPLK
T2 sequence (P00742 41-179 partner limits assumed): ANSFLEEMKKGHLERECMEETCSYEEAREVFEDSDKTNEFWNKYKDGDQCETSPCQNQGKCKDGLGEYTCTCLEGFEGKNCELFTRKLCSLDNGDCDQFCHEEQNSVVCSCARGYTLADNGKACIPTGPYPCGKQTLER
Experimental: (§1) Plasma FIX (500 nM) was incubated with human FXIa (3 nM) in 50 mM Hepes buffer, pH 7.4, containing 125 mM NaCl, 5 mM CaCl2, and 0.1 mg/mL bovine serum albumin at 24° C. […] The primary antibody was goat anti-human FIX polyclonal IgG (Enzyme Research Laboratories, South Bend, Tenn.), and the secondary antibody was horseradish peroxidase-conjugated anti-goat IgG. Detection was by chemiluminescence. […] The inhibition profile was determined over a range of inhibitor concentrations to determine the IC50 of the enzyme-inhibitor complex. The KM of the substrate for its enzyme was used to identify the concentration of the substrate to be used for inhibition studies. […] Active site concentrations for preparations of FXIa were determined by titrations with human antithrombin in an S-2366 cleavage assay. The reaction was monitored using a SpectraMax 340 microtiter plate reader (Molecular Devices Corp., Sunnyvale, Calif.) with a reaction volume of 100 μL and path length of 3 mm. Each assay was performed in triplicate. The concentration of S-2366 was measured using an absorption coefficient of 8,266 M-1cm-1 at λ342 nm, while the free p-nitroaniline concentration was calculated using an absorption coefficient of 9,933 M cm^−1 at λ405 nm. The data was fitted using the standard Michaelis-Menten equation to determine the KM and VMAX. Results
(§2) Inhibition of Proteases of the Coagulation and Digestive Systems by 16S. The inhibition potential of 500 μM SAM (16S, 15S, 13S) against coagulation enzymes including thrombin and factor Xa and digestive enzymes including trypsin and chymotrypsin was evaluated using chromogenic substrate hydrolysis assays reported in the literature.^2,3,6 These assays were performed using substrates appropriate for the enzyme being studied under conditions closest to the physiological condition (37° C. and pH 7.4), except for thrombin, which was performed at 25° C. and pH 7.4. The concentrations of enzymes and substrates in microplate wells, respectively, were: 6 nM and 50 μM for thrombin; 1.09 nM and 125 μM for factor Xa, 2.5 ng/ml and 80 μM for bovine trypsin; and 500 ng/ml and 240 μM for bovine chymotrypsin. The ratio of the proteolytic activity of an enzyme in the presence of the sulfated QAO to that in its absence was used to calculate percent inhibition (%).

[3] = target: T3, thrombin (Homo sapiens, UniProt P00734); assay: Thrombin chromogenic substrate hydrolysis assay; type: biochemical
T3 construct: purchased Haematologic Technologies (Essex Junction, Vt.); host or cells: human plasma
Experimental: as §1, §2

[4] = target: T4, human FXIa (Homo sapiens, UniProt P03951); assay: Inhibition of FXIa activation of FIX, Western blotting; type: biochemical
T4 construct: purchased Haematologic Technologies (Essex Junction, Vt.); host or cells: human plasma
T4 sequence (P03951 19-387 limits assumed): as the sequence (P03951 19-387 limits assumed) above
T4 sequence (P03951 388-625 limits assumed): as the sequence (P03951 388-625 limits assumed) above
Experimental: as §1

[5] = test system: human plasma; assay: Activated partial thromboplastin time (APTT) plasma clotting assay; type: biochemical
Experimental: (§3) Plasma clotting assays, prothrombin and activated partial thromboplastin time (PT and APTT, respectively), are routinely used to assess the anticoagulation potential of new enzyme inhibitors in an in vitro setting. Whereas PT measures the effect of an inhibitor on the extrinsic pathway of coagulation, APTT measures the effect on the intrinsic pathway.
(§4) Prothrombin Time (PT) and Activated Partial Thromboplastin Time (APTT) were assessed as described in Example 1.

[6] = test system: human plasma; assay: Prothrombin time (PT) plasma clotting assay; type: biochemical
Experimental: as §3, §4

[7] = test system: C57Bl/6 mice; assay: FeCl3 carotid artery thrombosis model; type: in vivo
Experimental: Exposure of the carotid artery of C57Bl/6 mice to FeCl3 (either 3.5% or 5.0%) results in formation of an occlusive platelet-rich thrombus within 15 minute.

- efficacy of FXIa inhibition ([1]; chromogenic substrate): ~100% and 97%
- ΔY ([1]; efficacy of inhibition): 97.1 ± 3.2
- HS (Hill slope) ([1]; pH 7.4, 37° C.): 1.3 and 1.3 ± 0.1
- IC50 ([1]; pH 7.4, 37° C., S-2366): 689 nM
- IC50 ([1]; translated with average molecular weight 2178 g/mol): ~550 nM and 551 nM
- HS [2]: 0.8 ± 0.2
- pIC50 [2]: 3.82
- ΔY [2]: 101.9 ± 3.5
- selectivity over factor Xa ([2]; FXIa vs factor Xa): 221 fold
- HS [3]: 0.5 ± 0.1
- pIC50 [3]: 3.15
- ΔY [3]: 83 ± 10
- selectivity over thrombin ([3]; FXIa vs thrombin): 1016 fold
- formation of FIXαβ ([4]; 3 μM SPGG, FIX 0.5 μM, after 120 min of incubation): not detectable
- inhibition at 3 µM ([4]; read-out: efficacy of inhibition of FIX activation by FXIa): ~100%
Compound: O=C(OC[C@H]1O[C@@H](OC(=O)c2cc(OS(=O)(=O)O)c(O)c(OS(=O)(=O)O)c2)[C@H](OC(=O)c2cc(OS(=O)(=O)O)c(O)c(OS(=O)(=O)O)c2)[C@@H](OC(=O)c2cc(OS(=O)(=O)O)c(O)c(OS(=O)(=O)O)c2)[C@@H]1OC(=O)c1cc(OS(=O)(=O)O)c(O)c(OS(=O)(=O)O)c1)c1cc(OS(=O)(=O)O)c(O)c(OS(=O)(=O)O)c1 [SPGG, Sulfated Pentagalloylglucoside]
- fold less effective than enoxaparin ([5]; at molar levels): 36 fold
- APTT doubling potency relative to enoxaparin (fold less) ([5]; by weight (μg/mL)): 18 fold
- concentration for 2-fold increase in APTT ([5]; human plasma): 96 µg/mL
- concentration for 2-fold increase in PT [6]: 298 µg/mL
- arteries in which thrombosis was prevented ([7]; 3.5% FeCl3, doses of 0.025 to 0.2 mg injected 10 min before FeCl3): ~100%
- protection of vessels from occlusion ([7]; 5.0% FeCl3, dose of 0.2 mg): protected all vessels from occlusion

— patent US9758459B2, “Allosteric modulators of factor XIa as anticoagulant agents” (VIRGINIA COMMONWEALTH UNIVERSITY, priority 2012, dated 2017)
